According to publication PMC10458236, “QSAR and Chemical Read-Across Analysis of 370 Potential MGMT Inactivators to Identify the Structural Features Influencing Inactivation Potency” (Pharmaceutics, 2023):
pIC50: −log10 of the molar value.

Target: T1, human recombinant MGMT (O^6-methylguanine-DNA methyltransferase) (Homo sapiens, UniProt P16455)
T1 construct: recombinant
T1 sequence (P16455 1-207): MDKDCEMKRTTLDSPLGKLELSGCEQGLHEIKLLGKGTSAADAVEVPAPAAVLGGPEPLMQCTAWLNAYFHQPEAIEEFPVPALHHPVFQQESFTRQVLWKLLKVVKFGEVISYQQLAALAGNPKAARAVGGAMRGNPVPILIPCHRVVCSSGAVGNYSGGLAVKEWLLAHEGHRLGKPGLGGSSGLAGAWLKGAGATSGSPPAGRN
Assay: [3H]-methylated-DNA MGMT inactivation assay
Format: biochemical

SMILES | pIC50
N#Cc1csc(COc2nc(N)nc3[nH]cnc23)c1 [compound 90] | 8.52
CCCOC(=O)n1cc2c(OCc3cc(Br)cs3)nc(N)nc2n1 [compound 411] | 8.55
